Measured values from the NIST ThermoML archive (doi:10.1021/je050498q).
Numbers after ± are expanded uncertainties.

Assays:
[1] = wn = mass fraction of the nth substance listed; settings: 101 kPa, Liquid
[2] = mn = molality of the nth substance listed, in mol/kg; settings: 298.15 K, 101 kPa, Liquid

O=C([O-])[C@H](O)[C@@H](O)C(=O)[O-].[Na+].[Na+] [disodium L-tartrate] + O
viscosity ([1]; 298.15 K, w1 = 0.01986): 0.932 ± 0.024 mPa·s | viscosity ([1]; 298.15 K, w1 = 0.03991): 0.995 ± 0.025 mPa·s | viscosity ([1]; 298.15 K, w1 = 0.06024): 1.06 ± 0.027 mPa·s | viscosity ([1]; 298.15 K, w1 = 0.08009): 1.137 ± 0.028 mPa·s | viscosity ([1]; 298.15 K, w1 = 0.09999): 1.23 ± 0.03 mPa·s | viscosity ([1]; 298.15 K, w1 = 0.12): 1.321 ± 0.032 mPa·s | viscosity ([1]; 298.15 K, w1 = 0.14): 1.431 ± 0.035 mPa·s | viscosity ([1]; 298.15 K, w1 = 0.16): 1.56 ± 0.038 mPa·s | viscosity ([1]; 298.15 K, w1 = 0.1795): 1.706 ± 0.041 mPa·s | viscosity ([1]; 298.15 K, w1 = 0.2007): 1.891 ± 0.045 mPa·s | viscosity ([1]; 298.15 K, w1 = 0.2196): 2.086 ± 0.049 mPa·s | viscosity ([1]; 298.15 K, w1 = 0.2402): 2.301 ± 0.054 mPa·s | viscosity ([1]; 298.15 K, w1 = 0.26): 2.563 ± 0.06 mPa·s | viscosity ([1]; 298.15 K, w1 = 0.2806): 2.897 ± 0.067 mPa·s | viscosity ([1]; 308.15 K, w1 = 0.01986): 0.773 ± 0.02 mPa·s | viscosity ([1]; 308.15 K, w1 = 0.03991): 0.824 ± 0.022 mPa·s | viscosity ([1]; 308.15 K, w1 = 0.06024): 0.885 ± 0.023 mPa·s | viscosity ([1]; 308.15 K, w1 = 0.08009): 0.952 ± 0.024 mPa·s | viscosity ([1]; 308.15 K, w1 = 0.09999): 1.02 ± 0.026 mPa·s | viscosity ([1]; 308.15 K, w1 = 0.12): 1.098 ± 0.028 mPa·s | viscosity ([1]; 308.15 K, w1 = 0.14): 1.184 ± 0.03 mPa·s | viscosity ([1]; 308.15 K, w1 = 0.16): 1.278 ± 0.032 mPa·s | viscosity ([1]; 308.15 K, w1 = 0.1795): 1.38 ± 0.034 mPa·s | viscosity ([1]; 308.15 K, w1 = 0.2007): 1.519 ± 0.037 mPa·s | viscosity ([1]; 308.15 K, w1 = 0.2196): 1.669 ± 0.04 mPa·s | viscosity ([1]; 308.15 K, w1 = 0.2402): 1.857 ± 0.045 mPa·s | viscosity ([1]; 308.15 K, w1 = 0.26): 2.055 ± 0.049 mPa·s | viscosity ([1]; 308.15 K, w1 = 0.2806): 2.305 ± 0.055 mPa·s | viscosity ([1]; 318.15 K, w1 = 0.01986): 0.644 ± 0.018 mPa·s | viscosity ([1]; 318.15 K, w1 = 0.03991): 0.683 ± 0.018 mPa·s | viscosity ([1]; 318.15 K, w1 = 0.06024): 0.726 ± 0.019 mPa·s | viscosity ([1]; 318.15 K, w1 = 0.08009): 0.782 ± 0.021 mPa·s | viscosity ([1]; 318.15 K, w1 = 0.09999): 0.832 ± 0.022 mPa·s | viscosity ([1]; 318.15 K, w1 = 0.12): 0.894 ± 0.023 mPa·s | viscosity ([1]; 318.15 K, w1 = 0.14): 0.959 ± 0.025 mPa·s | viscosity ([1]; 318.15 K, w1 = 0.16): 1.024 ± 0.026 mPa·s | viscosity ([1]; 318.15 K, w1 = 0.1795): 1.101 ± 0.028 mPa·s | viscosity ([1]; 318.15 K, w1 = 0.2007): 1.215 ± 0.03 mPa·s | viscosity ([1]; 318.15 K, w1 = 0.2196): 1.334 ± 0.033 mPa·s | viscosity ([1]; 318.15 K, w1 = 0.2402): 1.475 ± 0.036 mPa·s | viscosity ([1]; 318.15 K, w1 = 0.26): 1.647 ± 0.04 mPa·s | viscosity ([1]; 318.15 K, w1 = 0.2806): 1.846 ± 0.044 mPa·s | mass density ([2]; m1 = 0.0325): 1001.45 ± 0.58 kg/m3 | speed of sound ([2]; m1 = 0.0325): 1502 ± 3.3 m/s | mass density ([2]; m1 = 0.0351): 1001.8 ± 0.58 kg/m3 | speed of sound ([2]; m1 = 0.0351): 1502.3 ± 3.3 m/s | mass density ([2]; m1 = 0.0405): 1002.51 ± 0.58 kg/m3 | speed of sound ([2]; m1 = 0.0405): 1503.1 ± 3.3 m/s | mass density ([2]; m1 = 0.0552): 1004.48 ± 0.58 kg/m3 | speed of sound ([2]; m1 = 0.0552): 1505.4 ± 3.3 m/s | mass density ([2]; m1 = 0.0576): 1004.79 ± 0.58 kg/m3 | speed of sound ([2]; m1 = 0.0576): 1505.7 ± 3.3 m/s | mass density ([2]; m1 = 0.0673): 1006.08 ± 0.59 kg/m3 | speed of sound ([2]; m1 = 0.0673): 1507.2 ± 3.3 m/s | mass density ([2]; m1 = 0.0747): 1007.06 ± 0.59 kg/m3 | speed of sound ([2]; m1 = 0.0747): 1508.2 ± 3.3 m/s | mass density ([2]; m1 = 0.0814): 1007.94 ± 0.59 kg/m3 | speed of sound ([2]; m1 = 0.0814): 1509.9 ± 3.3 m/s | mass density ([2]; m1 = 0.1365): 1015.14 ± 0.6 kg/m3 | speed of sound ([2]; m1 = 0.1365): 1517.3 ± 3.3 m/s | mass density ([2]; m1 = 0.2798): 1033.29 ± 0.63 kg/m3 | speed of sound ([2]; m1 = 0.2798): 1537.5 ± 3.3 m/s | mass density ([2]; m1 = 0.4159): 1049.92 ± 0.66 kg/m3 | speed of sound ([2]; m1 = 0.4159): 1556.3 ± 3.3 m/s | mass density ([2]; m1 = 0.5661): 1067.63 ± 0.7 kg/m3 | speed of sound ([2]; m1 = 0.5661): 1576.4 ± 3.4 m/s | mass density ([2]; m1 = 0.7158): 1084.68 ± 0.73 kg/m3 | speed of sound ([2]; m1 = 0.7158): 1598.6 ± 3.4 m/s | mass density ([2]; m1 = 0.888): 1103.52 ± 0.78 kg/m3 | speed of sound ([2]; m1 = 0.888): 1618.5 ± 3.4 m/s | mass density ([2]; m1 = 1.055): 1121.13 ± 0.82 kg/m3 | speed of sound ([2]; m1 = 1.055): 1639.6 ± 3.4 m/s | mass density ([2]; m1 = 1.211): 1137 ± 0.86 kg/m3 | speed of sound ([2]; m1 = 1.211): 1659 ± 3.5 m/s | mass density ([2]; m1 = 1.412): 1156.69 ± 0.91 kg/m3 | speed of sound ([2]; m1 = 1.412): 1683.6 ± 3.5 m/s | mass density ([2]; m1 = 1.593): 1173.71 ± 0.95 kg/m3 | speed of sound ([2]; m1 = 1.593): 1705.1 ± 3.5 m/s | mass density ([2]; m1 = 1.749): 1187.9 ± 0.99 kg/m3 | speed of sound ([2]; m1 = 1.749): 1723.3 ± 3.5 m/s | mass density ([2]; m1 = 2.203): 1226.56 ± 1.1 kg/m3
